These results are taken from US11427548B2 (Arvinas Operations, Inc., priority 2015, dated 2022).

Read-outs that look alike come from different tables or passages of the source.

The target in the assay is T1, Androgen Receptor (Homo sapiens, UniProt P10275).
T1 construct: endogenous in cells; host or cells: VCaP cells
T1 sequence (P10275 1-920): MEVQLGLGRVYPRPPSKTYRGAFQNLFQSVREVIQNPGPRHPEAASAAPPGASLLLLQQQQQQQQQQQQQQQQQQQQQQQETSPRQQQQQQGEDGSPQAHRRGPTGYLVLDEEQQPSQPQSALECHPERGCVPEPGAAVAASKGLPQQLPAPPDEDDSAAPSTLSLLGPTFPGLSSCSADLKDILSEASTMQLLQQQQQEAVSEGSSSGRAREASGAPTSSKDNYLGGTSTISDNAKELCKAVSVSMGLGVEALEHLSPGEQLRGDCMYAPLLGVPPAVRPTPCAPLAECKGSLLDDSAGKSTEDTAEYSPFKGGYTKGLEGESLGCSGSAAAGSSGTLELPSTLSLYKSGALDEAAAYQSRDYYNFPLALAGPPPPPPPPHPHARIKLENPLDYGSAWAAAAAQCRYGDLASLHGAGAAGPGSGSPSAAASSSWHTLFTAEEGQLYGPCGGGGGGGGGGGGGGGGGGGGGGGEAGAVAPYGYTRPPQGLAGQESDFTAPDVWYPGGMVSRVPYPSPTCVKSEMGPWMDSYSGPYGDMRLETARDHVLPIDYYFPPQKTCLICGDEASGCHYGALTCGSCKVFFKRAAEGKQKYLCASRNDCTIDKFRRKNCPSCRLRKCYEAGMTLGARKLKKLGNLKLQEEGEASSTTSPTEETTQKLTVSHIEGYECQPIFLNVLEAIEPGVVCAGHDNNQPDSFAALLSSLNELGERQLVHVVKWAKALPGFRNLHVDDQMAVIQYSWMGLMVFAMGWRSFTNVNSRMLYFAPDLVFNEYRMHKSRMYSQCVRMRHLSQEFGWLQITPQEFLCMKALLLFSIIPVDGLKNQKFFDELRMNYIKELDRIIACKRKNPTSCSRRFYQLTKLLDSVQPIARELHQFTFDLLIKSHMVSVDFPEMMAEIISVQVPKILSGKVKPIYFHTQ
The assay can be described thus: Androgen Receptor ELISA assay (PathScan AR ELISA) in VCaP cells: AR degradation, Dmax and DC50. Type of assay: cell-based. Summed up:
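VCaP cells, 30,000/well, grown ≥3 days in phenol red-free RPMI with 5% charcoal-stripped FBS; compound added in 0.1% DMSO with 0.1 nM R1881, 7 half-log doses, 24 h. Lysate AR quantified by PathScan sandwich ELISA, HRP/TMB read at 450 nm, giving DC50 and Dmax.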
On the technique in general: An ELISA detects its analyte on a solid surface through an enzyme-linked reagent.

Setting [1] is: read-out: VCaP DC50; VCaP cells; Table 36.
Where [2] appears, read: VCaP cells; Table 36; read-out: VCaP DC50.
Setting [3] is: VCaP, read-out: VCaP Dmax (%), VCaP cells; Table 36.

Consider `Cc1ncsc1-c1ccc([C@H](C)NC(=O)[C@@H]2C[C@@H](O)CN2C(=O)[C@H](C(C)C)n2cc(Oc3cccc(OCCCCCOc4ccc(N5C(=S)N(c6ccc(C#N)c(C(F)(F)F)c6)C(=O)C5(C)C)cc4)c3)cn2)cc1` [Example 600, (2S,4R)-1-((S)-2-(4-(3-((5-(4-(3-(4-cyano-3-(trifluoromethyl)phenyl)-5,5-dimethyl-4-oxo-2-thioxoimidazolidin-1-yl)phenoxy)pentyl)oxy)phenoxy)-1H-pyrazol-1-yl)-3-methylbutanoyl)-4-hydroxy-N-((S)-1-(4-(4-methylthiazol-5-yl)phenyl)ethyl)pyrroli-dine-2-carboxamide], for which the Dmax (VCaP, read-out: VCaP Dmax (%)) is 26 to 50%. For the same molecule, under setting [1], the DC50 was > 501 nM.

For `Cc1ncsc1-c1ccc(CNC(=O)[C@@H]2C[C@@H](O)CN2C(=O)[C@H](C(C)C)n2cc(Oc3cccc(OCCCCCOc4ccc(N5C(=S)N(c6ccc(C#N)c(C(F)(F)F)c6)C(=O)C5(C)C)cc4)c3)cn2)cc1` [Example 601, (2S,4R)-1-((S)-2-(4-(3-((5-(4-(3-(4-cyano-3-(trifluoromethyl)phenyl)-5,5-dimethyl-4-oxo-2-thioxoimidazolidin-1-yl)phenoxy)pentyl)oxy)phenoxy)-1H-pyrazol-1-yl)-3-methylbutanoyl)-4-hydroxy-N-(4-(4-methylthiazol-5-yl)benzyl)pyrrolidine-2-carboxamide], the Dmax (VCaP, read-out: VCaP Dmax (%)) is < 25%. In addition, the DC50 under setting [1] was > 501 nM.

With `Cc1ncsc1-c1ccc([C@H](C)NC(=O)[C@@H]2C[C@@H](O)CN2C(=O)[C@@H](C(C)C)n2cc(-c3ccnc(OC4CN(c5ncc(C(=O)NC6C(C)(C)C(Oc7ccc(C#N)c(Cl)c7)C6(C)C)cn5)C4)c3)cn2)cc1` (stereo partly drawn) [Example 603, N-(3-(3-chloro-4-cyanophenoxy)-2,2,4,4-tetramethylcyclobutyl)-2-(3-((4-(1-((R)-1-((2S,4R)-4-hydroxy-2-(((S)-1-(4-(4-methylthiazol-5-yl)phenyl)ethyl)carbam-oyl)pyrrolidin-1-yl)-3-methyl-1-oxobutan-2-yl)-1H-pyrazol-4-yl)pyridin-2-yl)oxy)azetidin-1-yl)pyrimidine-5-carboxamide], under setting [2], the DC50 is > 501 nM. The Dmax under setting [3] was < 25%.

`Cc1ncsc1-c1ccc([C@H](C)NC(=O)[C@@H]2C[C@@H](O)CN2C(=O)[C@H](C(C)C)n2cc(-c3ccnc(OC4CN(c5ncc(C(=O)NC6C(C)(C)C(Oc7ccc(C#N)c(Cl)c7)C6(C)C)cn5)C4)c3)cn2)cc1` (stereo partly drawn) [Example 604, N-(3-(3-chloro-4-cyanophenoxy)-2,2,4,4-tetramethylcyclobutyl)-2-(3-((4-(1-((S)-1-((2S,4R)-4-hydroxy-2-(((S)-1-(4-(4-methylthiazol-5-yl)phenyl)ethyl)carbam-oyl)pyrrolidin-1-yl)-3-methyl-1-oxobutan-2-yl)-1H-pyrazol-4-yl)pyridin-2-yl)oxy)azetidin-1-yl)pyrimidine-5-carboxamide]: under setting [2], the DC50 was < 50 nM. Moreover, the maximal degradation (Dmax) under setting [3] is 51 to 70%.

Regarding `Cc1ncsc1-c1ccc([C@H](C)NC(=O)C2C[C@@H](O)CN2C(=O)[C@@H](NC(=O)c2cc3ccc(OC[C@H]4C[C@H](COc5ccc(N6C(=S)N(c7ccc(C#N)c(C(F)(F)F)c7)C(=O)C6(C)C)cc5)C4)cc3o2)C(C)(C)C)cc1` (stereo partly drawn) [Example 605, 1-(2-(6-((3-((4-(3-(4-cyano-3-(trifluoromethyl)phenyl)-5,5-dimethyl-4-oxo-2-thioxoimidazolidin-1-yl)phenoxy)methyl)cyclo-butyl)methoxy)benzo-furan-2-carboxamido)-3,3-dimethylbutanoyl)-4-hydroxy-N-(1-(4-(4-methylthiazol-5-yl)phenyl)ethyl)pyrroli-dine-2-carboxamide], the Dmax (VCaP, read-out: VCaP Dmax (%)) was < 25%. Besides, the DC50 under setting [1] is > 501 nM.

For `Cc1nccn1-c1ccc([C@H](C)NC(=O)C2C[C@@H](O)CN2C(=O)C(NC(=O)COCC2CCN(c3ccc(C(=O)N[C@H]4C(C)(C)[C@H](Oc5ccc(C#N)c(Cl)c5)C4(C)C)cn3)CC2)C(C)(C)C)cc1` (stereo partly drawn) [Example 606, N-((1r,3r)-3-(3-chloro-4-cyanophenoxy)-2,2,4,4-tetramethylcyclobutyl)-6-(4-((2-(((S)-1-((2S,4R)-4-hydroxy-2-(((S)-1-(4-(2-methyl-1H-imidazol-1-yl)phenyl)ethyl)carbam-oyl)pyrrolidin-1-yl)-3,3-dimethyl-1-oxobutan-2-yl)amino)-2-oxoethoxy)methyl)piper-idin-1-yl)nicotinamide], the DC50 under setting [2] was < 50 nM. Moreover, the Dmax (VCaP, VCaP cells; Table 36; read-out: VCaP Dmax (%)) was in the range of 51 to 70%.

Turning to `Cc1ncsc1-c1ccc([C@H](C)NC(=O)[C@@H]2C[C@@H](O)CN2C(=O)[C@@H](NC(=O)COCCCCCNc2ccc(C(=O)N[C@H]3C(C)(C)[C@H](Oc4ccc(C#N)c(Cl)c4)C3(C)C)nn2)C(C)(C)C)cc1` [Example 607, N-((1r,3r)-3-(3-chloro-4-cyanophenoxy)-2,2,4,4-tetramethylcyclobutyl)-6-((5-(2-(((S)-1-((2S,4R)-4-hydroxy-2-(((S)-1-(4-(4-methylthiazol-5-yl)phenyl)ethyl)carbam-oyl)pyrrolidin-1-yl)-3,3-dimethyl-1-oxobutan-2-yl)amino)-2-oxoethoxy)pentyl)amino) pyridazine-3-carboxamide], the DC50 under setting [2] is > 501 nM. The Dmax under setting [3] lay in the range of 26 to 50%.

For the molecule `Cc1ncsc1-c1ccc([C@H](C)NC(=O)[C@@H]2C[C@@H](O)CN2C(=O)[C@H](C(C)C)n2cc(-c3ccnc(N4CC[C@H](Oc5ccc(N6C(=S)N(c7ccc(C#N)c(C(F)(F)F)c7)C(=O)C6(C)C)cc5)C4)c3)cn2)cc1` [Example 609], the Dmax (VCaP, read-out: VCaP Dmax (%)) was < 25%. Besides, under setting [1], the DC50 was > 501 nM.

`Cc1ncsc1-c1ccc([C@H](C)NC(=O)[C@@H]2C[C@@H](O)CN2C(=O)[C@@H](C(C)C)n2cc(-c3ccnc(N4CC[C@H](Oc5ccc(N6C(=S)N(c7ccc(C#N)c(C(F)(F)F)c7)C(=O)C6(C)C)cc5)C4)c3)cn2)cc1` [Example 610, (2S,4R)-1-((R)-2-(4-(2-((S)-3-(4-(3-(4-cyano-3-(trifluoromethyl)phenyl)-5,5-dimethyl-4-oxo-2-thioxoimidazolidin-1-yl)phenoxy)pyrrolidin-1-yl)pyridin-4-yl)-1H-pyrazol-1-yl)-3-methylbutanoyl)-4-hydroxy-N-((S)-1-(4-(4-methylthiazol-5-yl)phenyl)ethyl)pyrroli-dine-2-carboxamide]: the Dmax (VCaP, read-out: VCaP Dmax (%)) was < 25%. The 50% degradation concentration (DC50) under setting [1] was > 501 nM.

Take `Cc1nccn1-c1ccc([C@H](C)NC(=O)[C@@H]2C[C@@H](O)CN2C(=O)[C@H](C(C)C)n2cc(OCCCOCCCCCOc3ccc(N4C(=S)N(c5ccc(C#N)c(C(F)(F)F)c5)C(=O)C4(C)C)cc3)cn2)cc1` [Example 611, (2S,4R)-1-((S)-2-(4-(3-((5-(4-(3-(4-cyano-3-(trifluoromethyl)phenyl)-5,5-dimethyl-4-oxo-2-thioxoimidazolidin-1-yl)phenoxy)pentyl)oxy)propoxy)-1H-pyrazol-1-yl)-3-methylbutanoyl)-4-hydroxy-N-((S)-1-(4-(2-methyl-1H-imidazol-1-yl)phenyl)ethyl)pyrrolidine-2-carboxamide]: the Dmax (VCaP, read-out: VCaP Dmax (%)) was < 25%. Under setting [1], the DC50 was > 501 nM.

For `Cc1ncsc1-c1ccc([C@H](C)NC(=O)[C@@H]2C[C@@H](O)CN2C(=O)C(NC(=O)COCCCOCC[C@@H](O)CCOc2ccc(N3C(=S)N(c4ccc(C#N)c(C(F)(F)F)c4)C(=O)C3(C)C)cc2)C(C)(C)C)cc1` (stereo partly drawn) [Example 613, 1-(2-(2-(3-((5-(4-(3-(4-cyano-3-(trifluoromethyl)phenyl)-5,5-dimethyl-4-oxo-2-thioxoimidazolidin-1-yl)phenoxy)-3-hydroxypentyl)oxy)pro-poxy)acetamido)-3,3-dimethylbutanoyl)-4-hydroxy-N-(1-(4-(4-methylthiazol-5-yl)phenyl)ethyl)pyrrolidine-2-carboxamide], the Dmax (VCaP, read-out: VCaP Dmax (%)) was 26 to 50%. Also, under setting [1], the 50% degradation concentration (DC50) is > 501 nM.

With `Cc1ncsc1-c1ccc([C@H](C)NC(=O)[C@@H]2C[C@@H](O)CN2C(=O)[C@@H](NC(=O)CN2CCO[C@H](COCCCCCOc3ccc(N4C(=S)N(c5ccc(C#N)c(C(F)(F)F)c5)C(=O)C4(C)C)cc3)C2)C(C)(C)C)cc1` [Example 614, (2S,4R)-1-((S)-2-(2-((S)-2-(((5-(4-(3-(4-cyano-3-(trifluoromethyl)phenyl)-5,5-dimethyl-4-oxo-2-thioxoimidazolidin-1-yl)phenoxy)pentyl)oxy)methyl)morpholino)ace-tamido)-3,3-dimethylbutanoyl)-4-hydroxy-N-((S)-1-(4-(4-methylthiazol-5-yl)phenyl)ethyl)pyrrolidine-2-carboxamide], the Dmax (VCaP, read-out: VCaP Dmax (%)) was 26 to 50%. Further, the DC50 under setting [1] was > 501 nM.

In general, Dmax refers to the largest share of the target that was removed. What is called DC50 is the concentration giving 50% degradation.
